Reference: paper PMC9150124, “Design of a Potent, Selective, and Brain-Penetrant Inhibitor of Wnt-Deactivating Enzyme Notum by Optimization of a Crystallographic Fragment Hit” (Journal of Medicinal Chemistry, 2022)
Values after ≈ are worked out from the molar mass of the structure shown. Values joined by “and” are separate entries in the source; they are usually repeats but may differ in a detail not shown here. Equal entries are not always repeated. Where two headings read alike, the source gives them in different places.

Tests used:
serine hydrolases = experiment: ABPP-TMT serine hydrolase selectivity in SW620 cells; details: SW620 conditioned media and cell lysates
in vivo = experiment: in vivo; set-up: species or system mouse
Procedure: Mouse pharmacokinetic (PK) data was generated at Charles River Laboratories (Groningen, Netherlands) and GVK
Biosciences (Hyderabad, India). Rat PK was performed by WuXi AppTec (Shanghai, China).
Animal Testing Declaration: All in life phase studies were conducted in accordance with local Ethics Review
process. See, statements from each company.

[1] = Metabolic stability in mouse hepatocytes
[2] = Aqueous solubility in PBS (pH 7.4); assay type: physicochemical
Excerpt: Biosciences (Hyderabad, India) or WuXi AppTec (Shanghai, China).
Table S1: Representative assay protocol

[3] = target: kinase named in conditions (Homo sapiens, UniProt Q6DT37); experiment: SelectScreen kinase profiling, SSBK ZLyte SP Technology; assay type: biochemical; details: CDC42 BPG (MRCKG), 10 μM
Procedure: (§1) Kinase selectivity screening was performed by Thermo Fisher Scientific (Paisley, U.K.) in their SelectScreen Biochemical Kinase Profiling Service. Assay information and data are presented in the Supporting Information.
(§2) Kinase selectivity screening was performed by ThermoFisher Scientific (Paisley, U.K.) in their SelectScreenTM
(§3) Biochemical Kinase Profiling service .

[4] = target: kinase named in conditions (Homo sapiens, UniProt Q13043); experiment: as above; assay type: biochemical; details: STK4 (MST1), 10 μM
Sequence of kinase named in conditions (Homo sapiens, UniProt Q13043) (Q13043 whole entry): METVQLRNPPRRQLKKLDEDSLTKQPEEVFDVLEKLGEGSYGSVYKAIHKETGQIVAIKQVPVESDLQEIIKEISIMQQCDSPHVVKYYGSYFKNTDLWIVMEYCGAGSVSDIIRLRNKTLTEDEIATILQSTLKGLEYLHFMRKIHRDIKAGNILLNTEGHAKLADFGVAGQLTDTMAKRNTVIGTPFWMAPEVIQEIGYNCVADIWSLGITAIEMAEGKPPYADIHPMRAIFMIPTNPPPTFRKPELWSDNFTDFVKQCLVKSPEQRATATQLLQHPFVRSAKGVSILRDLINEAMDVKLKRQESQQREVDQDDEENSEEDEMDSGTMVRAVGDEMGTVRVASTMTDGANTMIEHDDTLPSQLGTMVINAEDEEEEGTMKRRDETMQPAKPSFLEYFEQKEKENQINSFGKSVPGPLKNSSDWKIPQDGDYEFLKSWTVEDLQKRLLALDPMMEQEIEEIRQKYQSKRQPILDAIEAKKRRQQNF
Procedure: as §1, §2, §3

[5] = target: kinase named in conditions (Homo sapiens, UniProt Q13164); experiment: as above; assay type: biochemical; details: MAPK7 (ERK5), 10 μM
Procedure: as §1, §2, §3

[6] = target: kinase named in conditions (Homo sapiens, UniProt P41240); experiment: as above; assay type: biochemical; details: CSK, 10 μM
Procedure: as §1, §2, §3

[7] = target: kinase named in conditions (Homo sapiens, UniProt P53350); experiment: as above; assay type: biochemical; details: PLK1, 10 μM
Procedure: as §1, §2, §3

[8] = target: kinase named in conditions (Homo sapiens, UniProt Q14289); experiment: as above; assay type: biochemical; details: PTK2B (FAK2), 10 μM
Procedure: as §1, §2, §3

[9] = target: kinase named in conditions (Homo sapiens, UniProt Q04912); experiment: as above; assay type: biochemical; details: MST1R (RON), 10 μM
Sequence of kinase named in conditions (Homo sapiens, UniProt Q04912) (Q04912 25-1400): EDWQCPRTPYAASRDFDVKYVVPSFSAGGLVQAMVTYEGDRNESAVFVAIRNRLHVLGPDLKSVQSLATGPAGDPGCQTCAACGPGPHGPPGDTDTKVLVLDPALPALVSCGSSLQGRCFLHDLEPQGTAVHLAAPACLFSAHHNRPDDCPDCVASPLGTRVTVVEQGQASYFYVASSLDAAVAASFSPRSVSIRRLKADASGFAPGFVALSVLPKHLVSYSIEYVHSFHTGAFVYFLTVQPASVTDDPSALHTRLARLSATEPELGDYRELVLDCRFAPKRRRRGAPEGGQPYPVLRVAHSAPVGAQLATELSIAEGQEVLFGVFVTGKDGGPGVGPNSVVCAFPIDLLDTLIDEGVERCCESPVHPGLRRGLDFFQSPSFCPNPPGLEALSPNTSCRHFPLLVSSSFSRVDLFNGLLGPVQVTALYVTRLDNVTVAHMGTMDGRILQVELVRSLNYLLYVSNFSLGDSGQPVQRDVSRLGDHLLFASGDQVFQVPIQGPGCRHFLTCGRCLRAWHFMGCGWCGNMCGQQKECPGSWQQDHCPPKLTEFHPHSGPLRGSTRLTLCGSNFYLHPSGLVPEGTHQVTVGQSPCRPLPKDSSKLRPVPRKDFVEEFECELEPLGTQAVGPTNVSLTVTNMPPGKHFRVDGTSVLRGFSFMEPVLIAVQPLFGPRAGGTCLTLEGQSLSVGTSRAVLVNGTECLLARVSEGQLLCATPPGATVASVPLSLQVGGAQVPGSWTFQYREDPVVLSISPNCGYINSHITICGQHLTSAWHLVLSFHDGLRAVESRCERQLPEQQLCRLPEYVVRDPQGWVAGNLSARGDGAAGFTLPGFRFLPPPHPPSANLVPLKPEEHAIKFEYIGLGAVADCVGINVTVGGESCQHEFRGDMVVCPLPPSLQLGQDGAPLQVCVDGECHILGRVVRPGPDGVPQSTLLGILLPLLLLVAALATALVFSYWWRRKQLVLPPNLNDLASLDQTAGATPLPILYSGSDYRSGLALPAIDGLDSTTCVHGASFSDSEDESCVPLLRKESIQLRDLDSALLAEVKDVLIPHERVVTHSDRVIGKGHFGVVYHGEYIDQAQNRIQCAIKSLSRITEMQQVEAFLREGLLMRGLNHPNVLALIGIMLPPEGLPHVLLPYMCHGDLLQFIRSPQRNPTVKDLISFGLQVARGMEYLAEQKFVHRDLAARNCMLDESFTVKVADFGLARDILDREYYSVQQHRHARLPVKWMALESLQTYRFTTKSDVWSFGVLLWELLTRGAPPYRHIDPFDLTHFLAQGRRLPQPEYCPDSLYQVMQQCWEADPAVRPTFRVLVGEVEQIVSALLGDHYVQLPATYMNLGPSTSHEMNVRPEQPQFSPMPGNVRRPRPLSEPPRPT
Procedure: as §1, §2, §3

[10] = target: kinase named in conditions (Homo sapiens, UniProt Q8N4C8); experiment: as above; assay type: biochemical; details: MINK1, 10 μM
Procedure: as §1, §2, §3

[11] = target: kinase named in conditions (Homo sapiens, UniProt O00506); experiment: as above; assay type: biochemical; details: STK25 (YSK1), 10 μM
Sequence of kinase named in conditions (Homo sapiens, UniProt O00506) (O00506 whole entry): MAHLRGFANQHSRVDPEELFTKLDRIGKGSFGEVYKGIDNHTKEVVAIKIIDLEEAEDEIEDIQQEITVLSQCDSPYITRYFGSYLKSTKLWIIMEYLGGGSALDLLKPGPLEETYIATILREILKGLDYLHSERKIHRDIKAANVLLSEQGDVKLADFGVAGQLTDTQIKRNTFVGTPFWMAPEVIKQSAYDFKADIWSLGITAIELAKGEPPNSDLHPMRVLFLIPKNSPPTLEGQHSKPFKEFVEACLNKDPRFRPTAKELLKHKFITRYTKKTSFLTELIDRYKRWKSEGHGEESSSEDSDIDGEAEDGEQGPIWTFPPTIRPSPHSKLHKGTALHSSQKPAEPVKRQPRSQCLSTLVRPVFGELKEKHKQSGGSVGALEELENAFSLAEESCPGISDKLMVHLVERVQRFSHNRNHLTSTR
Procedure: as §1, §2, §3

[12] = target: kinase named in conditions (Homo sapiens, UniProt O43293); experiment: as above; assay type: biochemical; details: DAPK3 (ZIPK), 10 μM
Procedure: as §1, §2, §3

[13] = target: kinase named in conditions (Homo sapiens, UniProt P07949, V804L); experiment: as above; assay type: biochemical; details: RET V804L, 10 μM
Procedure: as §1, §2, §3

[14] = target: kinase named in conditions (Homo sapiens, UniProt Q15759); experiment: as above; assay type: biochemical; details: MAPK11 (p38 beta), 10 μM
Procedure: as §1, §2, §3

[15] = target: kinase named in conditions (Homo sapiens, UniProt P17612); experiment: as above; assay type: biochemical; details: PRKACA (PKA), 10 μM
Procedure: as §1, §2, §3

[16] = target: kinase named in conditions (Homo sapiens, UniProt P09619); experiment: as above; assay type: biochemical; details: PDGFRB (PDGFR beta), 10 μM
Procedure: as §1, §2, §3

[17] = target: kinase named in conditions (Homo sapiens, UniProt Q9UBS0); experiment: as above; assay type: biochemical; details: RPS6KB2 (p70S6Kb), 10 μM
Procedure: as §1, §2, §3

[18] = target: kinase named in conditions (Homo sapiens, UniProt P36507); experiment: as above; assay type: biochemical; details: MAP2K2 (MEK2), 10 μM
Procedure: as §1, §2, §3

[19] = target: kinase named in conditions (Homo sapiens, UniProt O15146); experiment: as above; assay type: biochemical; details: MUSK, 10 μM
Sequence of kinase named in conditions (Homo sapiens, UniProt O15146) (O15146 24-869): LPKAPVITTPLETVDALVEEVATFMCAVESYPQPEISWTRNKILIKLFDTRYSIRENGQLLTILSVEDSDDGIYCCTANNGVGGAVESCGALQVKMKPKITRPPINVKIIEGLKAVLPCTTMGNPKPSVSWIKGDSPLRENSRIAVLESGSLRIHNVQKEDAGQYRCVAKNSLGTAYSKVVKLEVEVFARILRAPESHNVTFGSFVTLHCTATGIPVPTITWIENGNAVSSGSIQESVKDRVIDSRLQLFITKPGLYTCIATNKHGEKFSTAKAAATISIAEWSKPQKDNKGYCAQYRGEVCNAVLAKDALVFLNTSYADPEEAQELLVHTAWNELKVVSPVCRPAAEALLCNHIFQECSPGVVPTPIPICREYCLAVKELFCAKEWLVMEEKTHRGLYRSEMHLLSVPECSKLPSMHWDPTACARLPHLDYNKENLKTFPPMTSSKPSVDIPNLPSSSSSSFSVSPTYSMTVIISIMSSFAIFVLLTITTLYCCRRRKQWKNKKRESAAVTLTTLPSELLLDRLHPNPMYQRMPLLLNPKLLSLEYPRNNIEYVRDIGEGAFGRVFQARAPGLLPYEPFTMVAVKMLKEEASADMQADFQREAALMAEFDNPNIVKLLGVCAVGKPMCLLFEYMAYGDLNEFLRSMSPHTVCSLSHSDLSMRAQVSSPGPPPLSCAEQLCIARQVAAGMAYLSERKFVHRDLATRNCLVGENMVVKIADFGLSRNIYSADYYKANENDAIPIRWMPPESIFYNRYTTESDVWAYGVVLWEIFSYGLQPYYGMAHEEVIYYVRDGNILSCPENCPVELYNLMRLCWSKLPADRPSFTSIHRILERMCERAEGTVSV
Procedure: as §1, §2, §3

[20] = target: kinase named in conditions (Homo sapiens, UniProt P53778); experiment: as above; assay type: biochemical; details: MAPK12 (p38 gamma), 10 μM
Sequence of kinase named in conditions (Homo sapiens, UniProt P53778) (P53778 whole entry): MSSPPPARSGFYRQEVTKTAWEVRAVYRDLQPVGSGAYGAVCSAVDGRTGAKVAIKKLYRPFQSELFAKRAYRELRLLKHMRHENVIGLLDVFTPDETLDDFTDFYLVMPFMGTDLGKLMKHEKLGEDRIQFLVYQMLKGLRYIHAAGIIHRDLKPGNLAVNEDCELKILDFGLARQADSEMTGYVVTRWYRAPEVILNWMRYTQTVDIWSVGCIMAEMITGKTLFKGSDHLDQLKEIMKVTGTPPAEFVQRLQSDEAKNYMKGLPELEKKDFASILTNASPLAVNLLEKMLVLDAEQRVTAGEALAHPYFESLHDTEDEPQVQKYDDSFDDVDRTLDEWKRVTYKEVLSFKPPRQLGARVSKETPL
Procedure: as §1, §2, §3

[21] = target: kinase named in conditions (Homo sapiens, UniProt Q8IU85); experiment: as above; assay type: biochemical; details: CAMK1D (CaMKI delta), 10 μM
Procedure: as §1, §2, §3

[22] = target: kinase named in conditions (Homo sapiens, UniProt P00533, G719C); experiment: as above; assay type: biochemical; details: EGFR (ErbB1) G719C, 10 μM
Procedure: as §1, §2, §3

[23] = target: kinase named in conditions (Homo sapiens, UniProt O95819); experiment: as above; assay type: biochemical; details: MAP4K4 (HGK), 10 μM
Sequence of kinase named in conditions (Homo sapiens, UniProt O95819) (O95819 whole entry): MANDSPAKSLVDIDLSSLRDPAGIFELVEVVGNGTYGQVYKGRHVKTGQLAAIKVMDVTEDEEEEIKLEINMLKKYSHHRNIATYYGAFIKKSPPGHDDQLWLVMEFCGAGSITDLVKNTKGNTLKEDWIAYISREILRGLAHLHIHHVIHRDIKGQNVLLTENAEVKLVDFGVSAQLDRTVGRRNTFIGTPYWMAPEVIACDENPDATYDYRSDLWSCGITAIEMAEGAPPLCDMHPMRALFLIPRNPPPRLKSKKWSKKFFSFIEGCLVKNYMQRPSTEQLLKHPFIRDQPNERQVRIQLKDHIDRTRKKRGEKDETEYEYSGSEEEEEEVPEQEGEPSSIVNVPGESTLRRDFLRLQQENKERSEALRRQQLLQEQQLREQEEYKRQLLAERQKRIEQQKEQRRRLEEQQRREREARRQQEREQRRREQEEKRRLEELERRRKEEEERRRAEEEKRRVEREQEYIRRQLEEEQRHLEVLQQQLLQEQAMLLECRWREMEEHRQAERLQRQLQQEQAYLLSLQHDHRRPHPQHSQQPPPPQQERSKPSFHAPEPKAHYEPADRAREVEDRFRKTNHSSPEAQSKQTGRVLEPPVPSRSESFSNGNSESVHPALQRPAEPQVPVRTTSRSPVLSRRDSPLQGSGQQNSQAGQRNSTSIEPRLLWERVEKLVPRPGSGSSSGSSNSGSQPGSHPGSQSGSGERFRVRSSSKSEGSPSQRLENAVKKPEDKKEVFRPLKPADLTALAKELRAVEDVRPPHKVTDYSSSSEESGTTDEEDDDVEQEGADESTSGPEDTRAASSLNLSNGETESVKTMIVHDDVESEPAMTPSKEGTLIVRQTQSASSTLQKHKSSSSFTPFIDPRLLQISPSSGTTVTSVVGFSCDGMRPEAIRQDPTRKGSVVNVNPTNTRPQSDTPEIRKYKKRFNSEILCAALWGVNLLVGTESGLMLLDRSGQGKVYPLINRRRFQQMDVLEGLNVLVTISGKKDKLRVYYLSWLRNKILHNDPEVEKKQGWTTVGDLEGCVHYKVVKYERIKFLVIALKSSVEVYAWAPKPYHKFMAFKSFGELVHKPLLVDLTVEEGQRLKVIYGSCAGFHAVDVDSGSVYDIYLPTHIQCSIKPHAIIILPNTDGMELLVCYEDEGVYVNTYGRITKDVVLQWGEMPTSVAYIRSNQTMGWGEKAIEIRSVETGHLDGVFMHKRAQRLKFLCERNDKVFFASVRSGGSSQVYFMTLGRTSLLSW
Procedure: as §1, §2, §3

[24] = male C57BL6 mice, i.v. 1.0 mg/kg

Question: With `FC(F)(F)c1c(Cl)ccc(-n2ccnn2)c1Cl` [8l, 1-(2,4-Dichloro-3-(trifluoromethyl)phenyl)-1H-1,2,3-triazole] as the molecule, how does the “Cross reactivity (other serine hydrolases detected)” value (serine hydrolases) read?
Answer: no cross reactivity against any of the other 39 serine hydrolases detected and 0/39

Question: What about the CL (in vivo; [24]) of the same molecule?
Answer: 10.4 mL/min/kg

Question: What about the Vdss (in vivo; [24]) of the same molecule?
Answer: 2.0 L/kg

Question: And the AUC(0-inf) (in vivo; mouse, 2x30 mg/kg po, plasma)?
Answer: 83400 ng·h/mL

Question: And the AUC(0-t) (in vivo; mouse, 2x30 mg/kg po, plasma)?
Answer: 82400 ng·h/mL

Question: And the half-life (in vivo; mouse, 2x30 mg/kg po, plasma)?
Answer: 2.97 h

Question: And the Tmax (in vivo; mouse, 2x30 mg/kg po, plasma, read-out: Tmax)?
Answer: 9.5 h

Question: What about the concentration at 10 h (in vivo; mouse, brain, po, mouse 2x30 mg/kg po, read-out: Brain concentration, individual animal) of the same molecule?
Answer: 7250 ng/g

Question: And the Fo (in vivo; mouse, p.o. 10 mg/kg)?
Answer: 66%

Question: And the “brain Cmax (free drug)” value (in vivo; mouse, p.o. 10 mg/kg)?
Answer: ≈ 300 nM

Question: What about the Tmax (in vivo; mouse, p.o. 10 mg/kg, brain) of the same molecule?
Answer: 1.0 h

Question: What about the t1/2 (in vivo; mouse, p.o. 10 mg/kg, brain) of the same molecule?
Answer: 2.2 h

Question: And the “time brain levels maintained above 100 nM” value (in vivo; mouse, p.o. 10 mg/kg, free drug)?
Answer: ~4 h

Question: What about the Tmax (in vivo; mouse, p.o. 10 mg/kg, plasma) of the same molecule?
Answer: 0.5 h

Question: What about the concentration at 0.5 h (in vivo; mouse, plasma, po, mouse 2x30 mg/kg po, 0.5 hr, read-out: Plasma concentration, individual animal) of the same molecule?
Answer: 5090 ng/mL

Question: What about the concentration at 1 h (in vivo; mouse, plasma, po, mouse 2x30 mg/kg po, 1 hr, read-out: Plasma concentration, individual animal) of the same molecule?
Answer: 4920 ng/mL

Question: And the concentration at 2 h (in vivo; mouse, plasma, po, mouse 2x30 mg/kg po, 2 hr, read-out: Plasma concentration, individual animal)?
Answer: 4000 ng/mL

Question: And the concentration at 4 h (in vivo; mouse, plasma, po, mouse 2x30 mg/kg po, 4 hr, read-out: Plasma concentration, individual animal)?
Answer: 3180 ng/mL

Question: What about the concentration at 9 h (in vivo; mouse, plasma, po, mouse 2x30 mg/kg po, 9 hr, read-out: Plasma concentration, individual animal) of the same molecule?
Answer: 645 ng/mL

Question: What about the concentration at 9.25 h (in vivo; mouse, plasma, po, mouse 2x30 mg/kg po, 9.25 hr, read-out: Plasma concentration, individual animal) of the same molecule?
Answer: 5940 ng/mL

Question: And the concentration at 9.5 h (in vivo; mouse, plasma, po, mouse 2x30 mg/kg po, 9.5 hr, read-out: Plasma concentration, individual animal)?
Answer: 7570 ng/mL

Question: And the concentration at 10 h (in vivo; mouse, plasma, po, mouse 2x30 mg/kg po, read-out: Plasma concentration, individual animal)?
Answer: 6270 ng/mL

Question: What about the concentration at 11 h (in vivo; mouse, plasma, po, mouse 2x30 mg/kg po, 11 hr, read-out: Plasma concentration, individual animal) of the same molecule?
Answer: 6850 ng/mL

Question: What about the “mouse hepatocytes Cli” value [1] of the same molecule?
Answer: 19.4 μL/min/10^6 cells

Question: And the half-life ([1]; mouse, hepatocytes)?
Answer: 1.23 h

Question: And the solubility ([2]; PBS pH 7.4, read-out: aq. solubility)?
Answer: 68 µg/mL and 240 µM

Question: What about the solubility thermodynamic ([2]; PBS, pH 7.4, n = 2, read-out: Thermodynamic Solubility @ RT, mean) of the same molecule?
Answer: 68 µg/mL (≈ 241 µM)

Question: And the inhibition at 10 µM [3]?
Answer: 2%

Question: What about the inhibition at 10 µM [4] of the same molecule?
Answer: 1%

Question: What about the inhibition at 10 µM [5] of the same molecule?
Answer: -3%

Question: And the inhibition at 10 µM [6]?
Answer: 2%

Question: And the inhibition at 10 µM [7]?
Answer: 13%

Question: And the inhibition at 10 µM [8]?
Answer: 7%

Question: What about the inhibition at 10 µM [9] of the same molecule?
Answer: 11%

Question: What about the inhibition at 10 µM [10] of the same molecule?
Answer: 14%

Question: What about the inhibition at 10 µM [11] of the same molecule?
Answer: 5%

Question: And the inhibition at 10 µM [12]?
Answer: 8%

Question: What about the inhibition at 10 µM [13] of the same molecule?
Answer: 8%

Question: What about the inhibition at 10 µM [14] of the same molecule?
Answer: 6%

Question: What about the inhibition at 10 µM [15] of the same molecule?
Answer: 0%

Question: What about the inhibition at 10 µM [16] of the same molecule?
Answer: 20%

Question: And the inhibition at 10 µM [17]?
Answer: 4%

Question: And the inhibition at 10 µM [18]?
Answer: 6%

Question: And the inhibition at 10 µM [19]?
Answer: -4%

Question: What about the inhibition at 10 µM [20] of the same molecule?
Answer: 2%

Question: And the inhibition at 10 µM [21]?
Answer: 1%

Question: And the inhibition at 10 µM [22]?
Answer: 5%

Question: What about the inhibition at 10 µM [23] of the same molecule?
Answer: -8%
